Patent US20020147136A1, “Compounds for targeting endothelial cells, compositions containing the same and methods for their use” (priority 2000, published 2002)
Residues, ends and D or L forms follow the SMILES beside them.

Legend:
Neuropilin-1/Fc = test: Fluorescence polarization binding to NP-1/Fc; conditions: unlabeled competitor; read-out: IC50 for competing BRU-326 binding to NP-1
Procedure: The ability of various compositions comprising TKPPR monomers or multimers to bind to NP-1/Fc and KDR-Fc was evaluated using FP. The binding studies of various Oregon Green (OG)-labeled compounds comprising TKPPR monomers or multimers and related compounds with Neuropilin-1/Fc, and KDR-Fc (both from R&D Systems), were carried out at 37° C. in D-PBS buffer (pH 7.4). FP values (mP) for each substrate was measured by titrating the ligand (5-20 nM) with receptor protein using a Jolley Research and Consulting FPM-1 fluorescence Polarization analyzer. In each of these experiments the observed polarization values were plotted against receptor concentration. The mP values for 100% binding of tracer labeled ligand to receptor protein was calculated using the software provided by the vendor.

KDR/FIk-1 receptor = test: Inhibition of phospho-tyrosine activation of KDR by VEGF in HUVEC; type: cell-based, human; conditions: 200 μM
Procedure: The ability of various compositions comprising TKPPR monomers or multimers to inhibit phospho-tyrosine activation of the KDR/FIk-1 receptor by VEGF was evaluated using HUVECs. Nine 100 mm confluent dishes of cultured HUVEC cells were serum starved overnight in basal (EBM) medium without any additives. The next morning the plates were divided into three groups as follows:
1. 3 Plates had their medium changed to fresh EBM medium with no additions.
After 5 minutes at 37° C. the dishes were all drained and quickly washed 3 times with cold D-PBS with Ca and Mg (Life Technologies). Lysates were prepared from each treatment group using Triton X-100 lysis buffer (20 mM Tris pH 8.0, 137 mM NaCl, 10% glycerol, 1% Triton X-100, 2 mM EDTA Supplemented with 1 mM PMSF, […] Leupeptin and Aprotinin, 1 mM sodium orthovanadate, 50 mM sodium pyrophosphate, 100 mM sodium fluoride.) The pooled lysates from each group were precleared using Protein A beads from Sigma then incubated overnight with anti-KDR antibody (Sc-504 from Santa Cruz Biotech). The immune complexes were brought down by adding fresh Protein A beads. […] The intensity of phosphorylated (active) KDR for each treatment group was determined from the PY-20 blot then normalized to the total amount of KDR present as determined by re-probing with anti-KDR (sc-315).

HAEC = test: TKPPR-bead binding to endothelial cells under flow; type: cell-based, human; conditions: flow 1.91 mL/min, 37° C.
Procedure: Circular 40 mm diameter glass coverslips (Bioptechs, Cat No. 40-1313-0319) were first derivative by dipping in 3-aminopropyltriethoxysilane (Pierce, Cat No. 80370ZZ), 20% in acetone (HPLC grade, Sigma Aldrich Cat No. 27,072-5), rinsed in acetone, and air-dried. After autoclaving, the derivatized coverslips were placed into 60 mm round, sterile culture dishes, one coverslip per dish. Five mL of a Collagen I solution (Becton Dickinson, Cat No. 40236), 41.6 μg/mL in 20 mM acetic acid (adjusted to pH 6.7 with NaOH), was added to each coverslip-containing dish. After 15 min, 0.25 mL of 11.5 mg/mL bis(sulfosuccinimidyl) suberate (Pierce, Cat No. 21580ZZ) was added to each dish and mixed in by swirling. After a 105-minute incubation, the dishes were drained and 5 mL of sterile TBS (20 mM Tris-HCl, pH 7.5, 140 mM NaCl) was added to each dish. […]
Coverslips containing confluent HAEC were mounted into a Bioptechs FCS2 parallel plate flow cell mounted on an Olympus IMT-2 inverted microscope. […] Wall shear stress T, in dynes/cm^2, was calculated using the equation (Lawrence et al., Blood 75:227-237, 1990): [formula]
Bead binding of equal numbers of red fluorescent beads conjugated with TKPPR and green fluorescent beads conjugated with glycine was monitored after increasing lengths of perfusion and variable lengths of subsequent washing with the same solution lacking microspheres.

[1] = test system: Human Umbilical Vein Endothelial Cells (HUVECS)
Procedure: The ability of compositions comprising a TKPPR monomer and a TKPPR multimer to inhibit ^125I-VEGF binding to endothelial cells was evaluated using HUVECs.

IC50 (Neuropilin-1/Fc): 80 µM | effect on the ability of VEGF to activate KDR (KDR/FIk-1 receptor): no effect
SMILES: CC(O)C(N)C(=O)NC(CCCCN)C(=O)N1CCCC1C(=O)N1CCCC1C(=O)NC(CCCNC(=N)N)C(=O)O [TKPPR, L-Arginine, L-threonyl-L-lysyl-L-prolyl-L-prolyl] (H-TKPPR-OH; configuration not given here)
Beads bound at 1.53 dynes/cm^2 (HAEC): 86 | IC50 [1]: 250 µM
